Read-outs that look alike come from different tables or passages of the source.
Columns and labels:
Hsp90 [1] = molecular target: T1, Hsp90 (Homo sapiens, UniProt P07900); test: Malachite green assay of Hsp90 ATPase activity; format: biochemical; conditions: by malachite green assay
T1 construct: The region encoding full-length Hsp90 was subcloned into pET28a; inferred from the pET28a vector and Ni-NTA purification; made in house; host or cells: E. coli
Description: The region encoding full-length Hsp90 was subcloned into pET28a. Protein expression in E. coli cells were induced with 0.5 mM IPTG. Cells were harvested after 20h of growth at 16°C and then disrupted by sonication. The soluble lysate was clarified by centrifugation and applied to a Ni^2+-nitrilo-triacetic acid (NTA) agarose column in a buffer (50 mM Tris-Cl, 300 mM NaCl, 10 mM Imidazole, 10% [v/v] Glycerol, 10 mM PMSF, 10 mM DTT). Hsp90 Protein was eluted with a linear gradient of 20–1000 mM imidazole. Hsp90 was identified by SDS-PAGE, and the high concentrated fraction was dialyzed against ATPase buffer (20 mM Tris-Cl, pH 7.5; 6 mM MgCl2; 20 mM KCl) and then aliquoted, frozen in liquid nitrogen, stored at −80°C.
The test compounds were diluted from mother plates (10 mM in 100% (v/v) DMSO) into daughter plates (200 μM in 2.0% (v/v) DMSO); 5 μL of test compound solution was added to each well (equivalent to a final concentration of 40 μM) of the 96-well assay plate. The first and last rows of the 96-well plate contained the appropriate concentration of DMSO were used as blank control. ATP was dissolved in the assay buffer to give a stock concentration of 2.5 mM and stored at room temperature. A 10 μL aliquot of ATP solution was added to each well to give a final assay concentration of 1 mM. Before the usage, Hsp90 protein was thawed on ice and suspended in chilled assay buffer to a stock concentration of 0.45 mg/mL, and the solution was kept on ice. The incubation was started by adding 10 μL of the stock Hsp90 to each well (except for the background wells which received 10 μL of assay buffer), giving a final assay volume of 25 μL. The plates were shaken for approximately 2 min and incubated for 3 h at 37°C.
The assay procedures were based on the literatures [33]–[35]. […] The reagent is initially dark brown, but on standing for ∼2 h at room temperature changes to a golden yellow and is ready for use. The assay buffer was 100 mM Tris–HCl, 20 mM KCl, 6 mM MgCl2, pH 7.4.
To stop the ATPase reactions, 80 μL of the malachite green reagent was added to each well.

Hsp90 [2] = molecular target: T1, Hsp90; test: ATP hydrolysis inhibition, ADP Hunter Plus (ADP fluorescence) assay; format: biochemical; conditions: by ADP fluorescence assay
Description: The first and last rows of the 96-well plate contained the appropriate concentration of DMSO were used as blank control. ATP was dissolved in the assay buffer to give a stock concentration of 2.5 mM and stored at room temperature. A 10 μL aliquot of ATP solution was added to each well to give a final assay concentration of 1 mM. Before the usage, Hsp90 protein was thawed on ice and suspended in chilled assay buffer to a stock concentration of 0.45 mg/mL, and the solution was kept on ice. […] The plates were shaken for approximately 2 min and incubated for 3 h at 37°C. The Discover RX ADP Hunter^TM Plus Assay kit (Discoverx, Fremont, CA) was used following the manufacturer's instructions. ATPase reactions were carried out after 3 h at 37°C temperature in presence of different concentrations of compounds. ADP generation was measured using Varioskan multimode microplate spectrophotometer (540 nm excitation and 620 nm emission). […] The background reaction rate was measured in a reaction lacking enzyme or substrate and subtracted from the experimental rates.

Hsp70 = molecular target: T2, Hsp70 (Homo sapiens, UniProt P0DMV8); test: Hsp70 ATPase activity assay (ADP Hunter Plus); format: biochemical
T2 construct: purchased Enzo Life science ALX-201-214-C025
T2 sequence (P0DMV8 whole entry): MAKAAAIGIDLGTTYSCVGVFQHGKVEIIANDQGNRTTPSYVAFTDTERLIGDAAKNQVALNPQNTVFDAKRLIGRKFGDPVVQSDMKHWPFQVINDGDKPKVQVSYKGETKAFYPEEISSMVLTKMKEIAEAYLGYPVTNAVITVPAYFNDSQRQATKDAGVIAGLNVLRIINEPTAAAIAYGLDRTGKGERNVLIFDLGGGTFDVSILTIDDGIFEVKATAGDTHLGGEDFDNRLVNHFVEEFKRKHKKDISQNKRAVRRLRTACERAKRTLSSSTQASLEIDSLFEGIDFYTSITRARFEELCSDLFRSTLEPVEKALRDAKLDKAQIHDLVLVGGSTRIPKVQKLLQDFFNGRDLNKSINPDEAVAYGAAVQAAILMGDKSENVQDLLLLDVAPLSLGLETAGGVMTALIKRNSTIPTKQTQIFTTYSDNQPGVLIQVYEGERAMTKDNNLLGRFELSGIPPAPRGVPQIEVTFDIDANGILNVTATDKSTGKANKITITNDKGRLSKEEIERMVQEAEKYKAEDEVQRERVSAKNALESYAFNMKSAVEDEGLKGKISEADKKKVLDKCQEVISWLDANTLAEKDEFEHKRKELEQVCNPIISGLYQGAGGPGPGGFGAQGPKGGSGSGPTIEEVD
From the text: The following materials were used for the biological evaluation: The PET-28a HSP90 expression vector was constructed. The Ni^2+-nitrilo-triacetic acid (NTA) agarose was purchased from General Electric (USA). […] Isopropyl-1-thio-d-galactopyranoside (IPTG) was purchased from Sigma (St. Lousi. MO). Antibodies of β-Actin, Hsp70, Hsp90, c-Raf, Akt, Src, Phospho-Src, ERK and Her-2 were purchased from Cell Signaling Technology (Danvers, MA). Anti-p-Akt(S473) was purchased from Signalway Antibody (Baltimore, MD). HIF-1α antibody was purchased from R&D systems. The stock solution of Hsp90 was prepared in a 20 mM Tris-Cl buffer with a pH 7.4, and concentration was fixed at 5.0 μM. […] The screened out compounds were purchased from SPECS and dissolved in DMSO (Sigma, St. Louis, MO) to make a final concentration of 10^−2 mol/L and were stored at −20°C. […] The water used in the experiments was thrice-distilled and all other materials were of analytical reagent grade.
Hsp70 ATPase activity was measured using Discover RX ADP Hunter^TM Plus Assay kit assay as descripted in the manufacturer's instructions. Breifly, Hsp70 (3 μM) was incubated with 1 mM ATP in 100 mM Tris pH 7.4 at 37°C for 3 h in the presence or absence of various concentrations of test compounds. ADP generation was measured using Varioskan multimode microplate spectrophotometer (540 nm excitation and 620 nm emission). Fluorescence intensity values measured for Hsp70 without any testing compound was assumed as 100% of enzyme activity. The background reaction rate was measured in a reaction lacking enzyme or substrate and subtracted from the experimental rates.

Hsp90 [3] = molecular target: T1, Hsp90; test: 3D-QSAR pharmacophore model Hypo1 (HypoGen) mapping and activity estimation; conditions: test set
From the text: HypoGen attempts to develop SAR hypothesis models from a set of molecules for which activities (IC50, Ki, etc.) on a given biological target have been measured. Based on the chemical features of compounds in the training set, we selected the following chemical functions in the feature dictionary: hydrogen bond acceptor (HBA), hydrogen bond donor (HBD), hydrophobic (HY), and hydrophobic aromatic (HYAr) groups. […] Pharmacophore models were then generated by using 3D-QSAR Pharmacophore Generation protocol, and the top ten unique pharmacophore models were finally exported. […] All test set molecules were built and minimized as the training set molecules. […] The crystal conformation of the ligand were extracted from the complex and then overlapped onto the pharmacophore model by using the Ligand Pharmacophore Mapping protocol implemented in the Discovery Studio package. Virtual screening of commercial available databases forms one aspect of an efficiently approach to find novel and potential leads for further development. […] All database searching was performed by using the Best/Flexible search option. The compounds mapped all the critical features in Hypo1 were retained as hit. […] Compounds those passed all of the screening experiments were retained for molecular docking.

Hsp90 [4] = molecular target: T1, Hsp90; set-up: method as in PMID 18020435, PMID 19610616, PMID 16213716; conditions: test set, cited from earlier work
[5] = read-out: IC50 (nM) Actual Activity scale, scale of actual activity
[6] = scale of actual activity, read-out: IC50 (nM) Actual Activity scale
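For IC50 (nM) Actual Activity scale in this document: bins of literature IC50 values from a fluorescence polarization competitive binding assay.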

Compound: CC(C)c1cc(C(=O)N2Cc3ccc(CN4CCN(C)CC4)cc3C2)c(O)cc1O [AT13387]
- IC50 (Hsp90 [1]): 0.37 ± 0.05 µM
- IC50 (Hsp90 [2]): 0.34 ± 0.08 µM
- IC50 (Hsp70; ADP Hunter Plus assay): 16.3 ± 1.2 µM
- selectivity HSP90 over HSP70 (Hsp70; ratio of IC50 HSP70 / HSP90, ADP fluorescence assay): over 47 times

Compound: CCNC(=O)c1cc2c(-c3cc(OCCN(C)C)c(Cl)cc3Cl)nc(N)nc2s1 [Compound 27]
- Errors (Hsp90 [3]): −3.6
- IC50 (Hsp90 [4]; [5]): 100 to 10000 nM
- IC50 (Hsp90 [4]; read-out: IC50 (nM) Actual): 127 nM

Compound: CCNC(=O)c1cc2c(-c3cc(OCCCN(C)C)c(Cl)cc3Cl)nc(N)nc2s1 [Compound 28]
- Errors (Hsp90 [3]): −2.2
- IC50 (Hsp90 [4]; [5]): < 100 nM
- IC50 (Hsp90 [4]; read-out: IC50 (nM) Actual): 80 nM

Compound: CCNC(=O)c1[nH]nc(-c2cc(Cl)c(O)cc2O)c1-c1ccc(CN2CCOCC2)cc1 [Compound 29]
- Errors (Hsp90 [3]): 1.1
- IC50 (Hsp90 [4]; [6]): < 100 nM
- IC50 (Hsp90 [4]; read-out: IC50 (nM) Actual): 37 nM

Compound: CCN(CC)CCOc1cc(-c2nc(N)nc3sc(C(=O)NCC(F)(F)F)cc23)c(Cl)cc1Cl [Compound 30]
- Errors (Hsp90 [3]): −1.0
- IC50 (Hsp90 [4]; [5]): < 100 nM

Compound: CCNC(=O)c1[nH]nc(-c2cc(Cl)c(O)cc2O)c1-c1ccc(CN(CCO)CCO)cc1 [Compound 31]
- Errors (Hsp90 [3]): −2.6
- IC50 (Hsp90 [4]; [6]): 100 to 10000 nM
- IC50 (Hsp90 [4]; read-out: IC50 (nM) Actual): 142 nM

Compound: CCNC(=O)c1cc2c(-c3cc(OCCNCCOC)c(Cl)cc3Cl)nc(N)nc2s1 [Compound 32]
- Errors (Hsp90 [3]): −1.3
- IC50 (Hsp90 [4]; [5]): < 100 nM
- IC50 (Hsp90 [4]; read-out: IC50 (nM) Actual): 84 nM

Compound: CCNC(=O)c1cc2c(-c3cc(OCCN4CCC(F)(F)CC4)c(Cl)cc3Cl)nc(N)nc2s1 [Compound 34]
- Errors (Hsp90 [3]): 1.4
- IC50 (Hsp90 [4]; [5]): < 100 nM
- IC50 (Hsp90 [4]; read-out: IC50 (nM) Actual): 58 nM

Compound: CCNC(=O)c1cc2c(-c3ccc(Cl)cc3)nc(N)nc2s1 [Compound 35]
- Errors (Hsp90 [3]): −2.7
- IC50 (Hsp90 [4]; [5]): 100 to 10000 nM
- IC50 (Hsp90 [4]; read-out: IC50 (nM) Actual): 720 nM

Compound: CCNC(=O)c1cc2c(-c3ccc(C)cc3C)nc(N)nc2s1 [Compound 36]
- Errors (Hsp90 [3]): 1.3
- IC50 (Hsp90 [4]; [5]): 100 to 10000 nM
- IC50 (Hsp90 [4]; read-out: IC50 (nM) Actual): 340 nM

Compound: CCNC(=O)c1[nH]nc(-c2cc(Cl)c(O)cc2O)c1-c1cccc(CNCCN2CCOCC2)c1 [Compound 37]
- Errors (Hsp90 [3]): 1.1
- IC50 (Hsp90 [4]; [6]): 100 to 10000 nM
- IC50 (Hsp90 [4]; read-out: IC50 (nM) Actual): 431 nM

Compound: CCNC(=O)c1[nH]nc(-c2cc(Cl)c(O)cc2O)c1-c1cccc(CN(C)CCO)c1 [Compound 38]
- Errors (Hsp90 [3]): −1.8
- IC50 (Hsp90 [4]; [6]): 100 to 10000 nM
- IC50 (Hsp90 [4]; read-out: IC50 (nM) Actual): 914 nM

Compound: COC1C=CC=C(C)C(=O)NC2=CC(=O)C(NCCCCCCOc3ccc4c(=O)cc(N5CCOCC5)oc4c3)=C(CC(C)CC(OC)C(O)C(C)C=C(C)C1OC(N)=O)C2=O (stereo not drawn) [Compound 41]
- Errors (Hsp90 [3]): 1.2
- IC50 (Hsp90 [4]; [6]): 100 to 10000 nM
- IC50 (Hsp90 [4]; read-out: IC50 (nM) Actual): 6100 nM

Compound: CS(=O)(=O)c1ccc(CNC2CCN(c3c[nH]nc3-c3cc(Br)c(O)cc3O)CC2)cc1 [Compound 42]
- Errors (Hsp90 [3]): −1.8
- IC50 (Hsp90 [4]; [6]): 100 to 10000 nM
- IC50 (Hsp90 [4]; read-out: IC50 (nM) Actual): 13900 nM

Compound: COc1cccc(CNC(=O)c2c[nH]nc2-c2cc(Cl)c(O)cc2O)c1 [Compound 43]
- Errors (Hsp90 [3]): −1.2
- IC50 (Hsp90 [4]; [6]): 100 to 10000 nM
- IC50 (Hsp90 [4]; read-out: IC50 (nM) Actual): 10700 nM

Compound: C#CCCCn1c(Cc2cc(OC)c(OC)c(OC)c2)nc2c(N)nc(F)nc21 [Compound 45]
- Errors (Hsp90 [3]): 1.0
- IC50 (Hsp90 [4]; [5]): > 100000 nM
- IC50 (Hsp90 [4]; read-out: IC50 (nM) Actual): 10500 nM

Source: article PMC3615092, “Identification, Design and Bio-Evaluation of Novel Hsp90 Inhibitors by Ligand-Based Virtual Screening” (PLoS ONE, 2013)
